SMILES strings stand for the structures.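 A five-concentration, 48-hour dose response in 96-well plates underlies each endpoint, interpolated linearly between surrounding concentrations. GI50: concentration for 50% inhibition of growth. TGI denotes the concentration required for complete inhibition of growth.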

Drawing on PubChem BioAssay (NCI), this text covers TGI and GI50 for 17 compounds.

Among the test systems are MOLT-4 leukemia; BT-549 breast; ACHN renal; UACC-257 melanoma; HL-60(TB) leukemia; MCF7 breast; CAKI-1 renal; MDA-MB-435; RPMI-8226 leukemia; HS 578T breast.
Test in all cases: inhibition of tumour cell growth, NCI panel, 48 h

On to `CC(C)=CCC/C(C)=C/CCC1(C)C2COC(=O)C21` (stereo not drawn), for which the TGI in the experiment on MOLT-4 leukemia was greater than 100 µM; in the experiment on BT-549 breast, greater than 100 µM; in the experiment with ACHN renal, greater than 100 µM; in the experiment on UACC-257 melanoma, greater than 100 µM; with HL-60(TB) leukemia, 46.4 µM; with MCF7 breast, greater than 100 µM. Besides, the TGI with CAKI-1 renal and with MDA-MB-435 was greater than 100 µM each time.
Regarding `O=c1c2cc(Cl)ccc2n2nnc3ccc(NCCNCCO)c1c32`, the TGI in the experiment with MOLT-4 leukemia was 6.59 µM; in the experiment with RPMI-8226 leukemia, 10.2 µM; in the experiment with BT-549 breast it was 5.22 µM; in the experiment with ACHN renal, 2.43 µM; in the experiment on UACC-257 melanoma it was 3.6 µM; with HL-60(TB) leukemia, 9.77 µM. The TGI in the experiment with MCF7 breast turned out to be 9.46 µM; with CAKI-1 renal it was 4.97 µM; with MDA-MB-435, 2.36 µM.
On to `C#Cc1ccccc1C(=O)OC`, for which the TGI in the experiment on MOLT-4 leukemia, in the experiment on RPMI-8226 leukemia, in the experiment on ACHN renal, in the experiment on UACC-257 melanoma and with HL-60(TB) leukemia was greater than 100 µM in each case.
In the case of `Cn1c(=O)n2n(c1=O)C1C(=CC2)C2C=CC1n1c(=O)n(C)c(=O)n12` (stereo not drawn), the TGI with MOLT-4 leukemia, in the experiment with RPMI-8226 leukemia, in the experiment with BT-549 breast, with ACHN renal, in the experiment on UACC-257 melanoma and in the experiment on HL-60(TB) leukemia was greater than 100 µM each time. Moreover, the TGI in the experiment on HS 578T breast, with CAKI-1 renal and in the experiment on MDA-MB-435 was greater than 100 µM throughout.
Turning to `Cc1cc(=O)[nH]c(S(=O)(=O)NC(=S)Nc2ccc(Br)cc2)n1`, the TGI in the experiment with MOLT-4 leukemia, in the experiment on RPMI-8226 leukemia, in the experiment on BT-549 breast, in the experiment on ACHN renal, in the experiment with UACC-257 melanoma and in the experiment on HL-60(TB) leukemia was greater than 100 µM each time. The TGI in the experiment with HS 578T breast, with CAKI-1 renal and in the experiment with MDA-MB-435 was greater than 100 µM each time.
Consider `CN1C(C(=O)Nc2ccccn2)=C(O)c2ccccc2S1(=O)=O`, for which the TGI in the experiment with MOLT-4 leukemia, in the experiment on RPMI-8226 leukemia, in the experiment with BT-549 breast, in the experiment with ACHN renal, in the experiment on UACC-257 melanoma and in the experiment with HL-60(TB) leukemia was greater than 100 µM throughout. Also, the TGI in the experiment on MCF7 breast, in the experiment with CAKI-1 renal and in the experiment on MDA-MB-435 was greater than 100 µM throughout.
Take `CC1Oc2c(c(O)cc3oc(=O)cc(-c4ccccc4)c23)C(=O)C1C` (stereo not drawn): the TGI in the experiment with MOLT-4 leukemia, with RPMI-8226 leukemia, in the experiment on ACHN renal, in the experiment with HL-60(TB) leukemia and with CAKI-1 renal was greater than 100 µM in each case.
Take `O.O=[Se](=O)(O)O.[NH-]C1CCCCC1[NH-].[Pt+2]` (stereo not drawn): the GI50 is 2.79 µM with MOLT-4 leukemia; 1.12 µM in the experiment with RPMI-8226 leukemia; 46.4 µM in the experiment on UACC-257 melanoma; 3.22 µM in the experiment with HL-60(TB) leukemia; 3.49 µM in the experiment with MCF7 breast; 4.56 µM with CAKI-1 renal. For the same compound, the TGI is greater than 100 µM in the experiment with MOLT-4 leukemia; greater than 31.6 µM in the experiment with RPMI-8226 leukemia; greater than 100 µM with UACC-257 melanoma; 33.8 µM with HL-60(TB) leukemia; greater than 47.1 µM in the experiment on MCF7 breast; 78.6 µM with CAKI-1 renal.
`C=C1C(=O)OC2C1CC1OC2C(C)CCC/C(C)=C\CCC1(C)O` (stereo not drawn): the TGI amounted to 21 µM with MOLT-4 leukemia; 24.3 µM in the experiment on RPMI-8226 leukemia; 72.8 µM with UACC-257 melanoma; 21.2 µM in the experiment with HL-60(TB) leukemia; 57.4 µM in the experiment with MCF7 breast; 61.4 µM with CAKI-1 renal.
For the compound `Clc1cccc(Cl)c1C1ON=C(c2ccccc2)N1C12CC3CC(CC(C3)C1)C2` (stereo not drawn), the TGI is 46.3 µM with MOLT-4 leukemia; 47.8 µM with RPMI-8226 leukemia; greater than 100 µM with ACHN renal; 15.1 µM in the experiment with UACC-257 melanoma; 8.72 µM with HL-60(TB) leukemia; greater than 100 µM in the experiment on MCF7 breast. Also, the TGI is 87.2 µM in the experiment with HS 578T breast, greater than 100 µM in the experiment on CAKI-1 renal and greater than 100 µM in the experiment on MDA-MB-435.
`CCOC(=O)Cn1c(C)nc2nn(Cc3ccccc3)cc2c1=O`: the TGI in the experiment with MOLT-4 leukemia, with BT-549 breast, in the experiment with ACHN renal, with MCF7 breast, in the experiment with HS 578T breast and in the experiment with MDA-MB-435 was greater than 100 µM in each case.
As to `Cc1ccc(N=Nc2cc(=O)[nH]c(=O)[nH]2)cc1C`, the TGI with MOLT-4 leukemia was greater than 100 µM; in the experiment on RPMI-8226 leukemia, 14 µM; in the experiment on BT-549 breast, 26.6 µM; in the experiment on ACHN renal, 24.4 µM; in the experiment with UACC-257 melanoma, 28.7 µM; with HL-60(TB) leukemia, 7.18 µM. Also, the TGI is 29.4 µM in the experiment on MCF7 breast and 26.8 µM in the experiment with MDA-MB-435.
As to `COc1ccc(/C(Cl)=C(\C=O)c2ccc(Cl)cc2)cc1`, the TGI is 7.81 µM in the experiment with MOLT-4 leukemia; 21.2 µM with ACHN renal; 77.4 µM in the experiment on UACC-257 melanoma; 16.6 µM with HL-60(TB) leukemia; greater than 100 µM in the experiment on CAKI-1 renal.
For `CCC[CH2][Ge]([CH2]CCC)([CH2]CCC)[O]C(=O)CCl`, the results for the GI50 in the experiment on MOLT-4 leukemia, in the experiment with ACHN renal and in the experiment with CAKI-1 renal were 0.856 µM, 2.71 µM and 5.26 µM, respectively. The TGI amounted to 29.9 µM in the experiment with MOLT-4 leukemia, 18.4 µM with ACHN renal and 20.3 µM in the experiment on CAKI-1 renal.
Consider `NC(=S)NS(=O)(=O)c1ccc(Cl)cc1Cl`, for which the TGI in the experiment on MOLT-4 leukemia, in the experiment with RPMI-8226 leukemia, in the experiment with BT-549 breast, with ACHN renal, in the experiment on UACC-257 melanoma and in the experiment with HL-60(TB) leukemia was greater than 100 µM in each case. Besides, the TGI with HS 578T breast, in the experiment with CAKI-1 renal and with MDA-MB-435 was greater than 100 µM throughout.
In the case of `Cn1cnc([N+](=O)[O-])c1Sc1nncc2[nH]cnc12`, the TGI in the experiment on MOLT-4 leukemia, in the experiment on RPMI-8226 leukemia, in the experiment on BT-549 breast, in the experiment with ACHN renal, in the experiment with UACC-257 melanoma and in the experiment on HL-60(TB) leukemia was greater than 100 µM each time. In addition, the TGI in the experiment with MCF7 breast, in the experiment with CAKI-1 renal and in the experiment with MDA-MB-435 was greater than 100 µM each time.
Turning to `NCCCN1CCN(CCCNc2ccc3ncn4c5ccccc5c(=O)c2c34)CC1`, the TGI in the experiment with MOLT-4 leukemia is greater than 25 µM; in the experiment with RPMI-8226 leukemia it was greater than 25 µM; with ACHN renal, 13.9 µM; with UACC-257 melanoma, 19.1 µM; in the experiment on HL-60(TB) leukemia it was 10.1 µM; in the experiment on MCF7 breast, greater than 25 µM. Besides, the values for the TGI in the experiment on HS 578T breast, in the experiment on CAKI-1 renal and with MDA-MB-435 were 22.1 µM, 9.02 µM and greater than 25 µM, respectively.
